This is an account of results in patent US5750720A, “4-[(thien-3-yl)methyl]-imidazole analgesics” (Ortho Pharmaceutical Corporation, priority 1996, dated 1998).

The target of series [1] is T1, Alpha2D adrenergic receptor (Rattus norvegicus, UniProt P22909).
T1 construct: aliquots of the synaptic membrane fraction; from tissue; host or cells: rat cerebral cortex, synaptic membrane fraction
T1 sequence (P22909 1-465): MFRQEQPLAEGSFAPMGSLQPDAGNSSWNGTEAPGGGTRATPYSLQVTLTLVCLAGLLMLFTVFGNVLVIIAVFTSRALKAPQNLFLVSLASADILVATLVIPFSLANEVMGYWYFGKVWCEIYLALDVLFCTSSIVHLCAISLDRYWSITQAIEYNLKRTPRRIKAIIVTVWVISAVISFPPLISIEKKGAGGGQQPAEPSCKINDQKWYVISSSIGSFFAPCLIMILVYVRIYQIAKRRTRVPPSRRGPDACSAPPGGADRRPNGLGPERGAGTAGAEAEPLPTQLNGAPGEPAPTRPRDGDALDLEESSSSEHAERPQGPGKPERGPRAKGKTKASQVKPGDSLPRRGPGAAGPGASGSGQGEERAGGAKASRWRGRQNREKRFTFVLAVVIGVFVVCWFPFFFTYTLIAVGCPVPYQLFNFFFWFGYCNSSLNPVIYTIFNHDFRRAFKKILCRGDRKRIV
In words: Alpha2D adrenergic receptor binding assay (3H-paraaminoclonidine, rat cortex synaptic membranes). Set-up: species or system Wistar rats. As for the experimental part: Alpha2D adrenergic receptor binding assay
Male, Wistar rats (150-250 g, VAF, Charles River, Kingston, N.Y.) are sacrificed by cervical dislocation and their brains removed and placed immediately in ice cold HEPES buffered sucrose. The cortex is dissected out and homogenized in 20 volumes of HEPES sucrose in a Teflon®-glass homogenizer. The homogenate is centrifuged at 1000 g for 10 min, and the resulting supernatant centrifuged at 42,000 g for 10 min. The resulting pellet is resuspended in 30 volumes of 3 mM potassium phosphate buffer, pH 7.5, preincubated at 25° C. for 30 min and recentrifuged. The resulting pellet is resuspended as described above and used for the receptor binding assay. Incubation is performed in test tubes containing phosphate buffer, 2.5 mM MgCl2, aliquots of the synaptic membrane fraction, the ligand ^3 H-paraaminoclonidine and test drug at 25°0 C. for 20 min. The incubation is terminated by filtration of the tube contents through glass fiber filter sheets. Following washing of the sheets with 10 mM HEPES buffer, the adhering radioactivity is quantified by liquid scintillation spectrometry.
Binding of the test drug to the receptor is determined by comparing the amount of radiolabeled ligand bound in control tubes without drug to the amount of radiolabeled ligand bound in the presence of the drug. Dose-response data are analyzed with LIGAND, a nonlinear curve fitting program designed specifically for the analysis of ligand binding data. This assay is described by Simmons, R. M. A., and Jones, D. J., Binding of [^3 H-]prazosin and [^3 H-]p-aminoclonidine to α-Adrenoceptors in Rat Spinal Cord, Brain Research 445:338-349, 1988.

Series [2] concerns acetylcholine bromide-induced abdominal constriction response. Briefly: Mouse Acetylcholine Bromide-Induced Abdominal Constriction Assay. The series is classed as in vivo. Conditions: p.o., 30 min before acetylcholine bromide 5.5 mg/kg i.p.; for ED50: po, 0.5 h, dose producing 50% analgesia; for inhibition at 30 mg/kg: @30 mpk. As for the experimental part: Mouse Acetylcholine Bromide-Induced Abdominal Constriction Assay
The mouse acetylcholine bromide-induced abdominal constriction assay, as described by Collier et al. in Brit. J. Pharmacol. Chem. Ther., 32:295-310, 1968, with minor modifications was used to assess analgesic potency of the compounds herein. The test drugs or appropriate vehicle were administered orally (p.o.) and 30 minutes later the animal received an intraperitoneal (i.p.) injection of 5.5 mg/kg acetylcholine bromide (Matheson, Coleman and Bell, East Rutherford, N.J.). The mice were then placed in groups of three into glass bell jars and observed for a ten minute observation period for the occurrence of an abdominal constriction response (defined as a wave of constriction and elongation passing caudally along the abdominal wall, accompanied by a twisting of the trunk and followed by extension of the hind limbs). The percent inhibition of this response to a nociceptive stimulus (equated to % analgesia) was calculated as follows: The % Inhibition of response, i.e., % analgesia is equal to the difference between the number of control animals response and the number of drug-treated animals response times 100 divided by the number of control animals responding.
At least 15 animals were used for control and in each of the drug treated groups. At least three doses were used to determine each dose response curve and ED50 (that dose which would produce 50% analgesia). The ED50 values and their 95% fiducial limits were determined by a computer assisted probit analysis.

The test system of series [3] is α2-adrenoceptor. Conditions: cited from earlier work; for hypotensive effect: animals and humans, magnitude relatively insignificant.
For series [4], the system named is α2-adrenoceptor. Particulars: non-opiate mechanism, without opiate liability; cited from earlier work.
The mark [5] stands for this setting: 3H-paraaminoclonidine, rat cortex, 25° C, 20 min, read-out: Ki.

Where a name gives a salt, the structure may show the parent alone. Read-outs that look alike come from different tables or passages of the source.

The Ki is a dissociation constant, usually derived from enzyme kinetics or from competition with a known ligand. Usually ED50 stands for the midpoint of the dose-response relation. High values mean weaker potency, low ones greater potency. A word on the inhibition: it is the relative decrease from the control value, in per cent. Higher therefore signals a strong effect.

Regarding `Cc1cscc1C(C)c1c[nH]cn1.O=C(O)/C=C/C(=O)O` (stereo not shown) [Cp-3, 4-[1-(4-Methylthien-3-yl)ethyl]-1H-imidazole Fumarate], in series [1], affinity was put at a Ki of 0.39 nM. For the same compound, the median effective dose (ED50) in series [2] came out at 0.4 mg/kg.

`Cc1cc(Cc2c[nH]cn2)c(C)s1.O=C(O)/C=C/C(=O)O` [Cp-5, 4-[(2,5-dimethylthien-3-yl)methyl]-1H-imidazole Fumarate] registered a Ki in series [1] of 0.69 nM. The same compound gave a median effective dose (ED50) in series [2] of 1.3 mg/kg.

Regarding `c1nc(Cc2ccsc2)c[nH]1`, the Ki in series [1] (setting [5]) turned out to be 3.1 nM. The 50% effect level in series [2] (ED50) was put at a dose of 6.4 mg/kg.

As for `Cc1cscc1Cc1c[nH]cn1.O=C(O)/C=C/C(=O)O` [Cp-2, 4-[(4-Methylthien-3-yl)methyl]-1H-imidazole Fumarate], the affinity in series [1], expressed as Ki, was 0.47 nM. The same compound had an ED50 in series [2] of 0.4 mg/kg.

For `CCc1cscc1Cc1c[nH]cn1` [Cp-9, 4-[(4-ethylthien-3-yl)methyl]-1H-imidazole fumarate], the Ki in series [1] turned out to be 0.29 nM. In series [2], the inhibition at 30 mg/kg worked out at 100%.

In series [1], `CCc1sccc1Cc1c[nH]cn1.O=C(O)/C=C/C(=O)O` [Cp-7, 4-[(2-ethylthien-3-yl)methyl]-1H-imidazole fumarate] yielded an inhibition constant (Ki) of 0.07 nM. Further, the 50% effect level in series [2] (ED50) was put at a dose of 0.4 mg/kg.

On to `CCc1cc(C(C)c2c[nH]cn2)c(CC)s1` (stereo not shown), for which, in series [1] (setting [5]), the inhibition constant Ki was found to be 11.4 nM. This compound yielded an inhibition at 30 mg/kg in series [2] of 67%.

Regarding `CCC(c1c[nH]cn1)c1cscc1C` (stereo not shown) [Cp-4, 4-[1-(4-Methylthien-3-yl)propyl]-1H-imidazole Fumarate], in series [1], affinity was put at a Ki of 0.97 nM. Moreover, the inhibition at 30 mg/kg in series [2] was found to be 100%.

As for `CC(c1ccsc1)c1c[nH]cn1` (stereo not shown), in series [1] (setting [5]), the Ki came out at 2.5 nM. In series [2], this compound showed an inhibition at 30 mg/kg of 100%.

For the compound `Cc1csc(C)c1C(C)c1c[nH]cn1` (stereo not shown), the inhibitory constant (Ki) in series [1] (setting [5]) is 33.5 nM. Moreover, the median effective dose (ED50) in series [2] was 7.8 mg/kg.

For `C=C(c1c[nH]cn1)c1csc(Br)c1Br`, in series [1] (setting [5]), the Ki was determined as 0.98 nM. Moreover, in series [2], the inhibition at 30 mg/kg came out at 27%.

As to `CCc1sccc1C(C)c1c[nH]cn1` (stereo not shown), the Ki in series [1] (setting [5]) is 1.1 nM. In addition, in series [2], 30 mg/kg produced 100% inhibition.

For the compound `Cc1csc(C)c1Cc1c[nH]cn1` [Cp-8, 4-[(2,4-Dimethylthien-3-yl)methyl]-1H-imidazole Fumarate], in series [1], the Ki stood at 0.1 nM. This compound registered an inhibition at 30 mg/kg in series [2] of 100%.

With `Clc1cccc(Cl)c1NC1=NCCN1` [Clonidine], the “other behavioral and physiological effects” value in the series on α2-adrenoceptor [3] (in vivo) is “sedation and cardiovascular effects”. Further, in the series on α2-adrenoceptor [4], the analgesia entry is on record as “produce analgesia through a non-opiate mechanism”.

As for `Cc1cc(C(C)c2c[nH]cn2)c(C)s1` (stereo not shown), the inhibitory constant (Ki) in series [1] (setting [5]) is 6.1 nM. Further, 30 mg/kg produced 100% inhibition in series [2].

The compound `CCc1cc(Cc2c[nH]cn2)c(CC)s1.O=C(O)/C=C/C(=O)O` [Cp-6, 4-[(2,5-diethylthien-3-yl)methyl]-1H-imidazole Fumarate] yielded a Ki in series [1] of 0.4 nM. The ED50 in series [2] was 3.7 mg/kg.

Compound `Cc1sccc1Cc1c[nH]cn1` [Cp-1, 4-[(2-Methylthien-3-yl)methyl]-1H-imidazole Fumarate] came in with an inhibitory constant (Ki) in series [1] of 0.44 nM. This compound also had an inhibition at 30 mg/kg in series [2] of 100%.

Regarding `Cc1cccc(Cc2c[nH]cn2)c1C` [detomidine], in the series with α2-adrenoceptor [3], the hypotensive effect result is “hypotensive in animals and in humans, but the magnitude of this cardiovascular effect is relatively insignificant”.

Take `CCc1cscc1C(C)c1c[nH]cn1` (stereo not shown) [Cp-10, 4-[1-(4-ethylthien-3-yl)ethyl]-1H-imidazole fumarate]: the Ki in series [1] was found to be 0.28 nM. Also, in series [2], 30 mg/kg produced 100% inhibition.

In the case of `Cc1sccc1C(C)c1c[nH]cn1` (stereo not shown), the inhibition constant (Ki) in series [1] (setting [5]) stood at 2.3 nM. The compound further came in with a 50% effective dose (ED50) in series [2] of 1.6 mg/kg.

Take `Cc1cccc(C(C)c2cnc[nH]2)c1C` (racemic) [Medetomidine]: in the series on α2-adrenoceptor [3], the hypotensive effect entry is “hypotensive in animals and in humans, but the magnitude of this cardiovascular effect is relatively insignificant”.
